The values below come from ChEMBL document CHEMBL5260829, “Recent advances in the discovery of small molecule c-Met Kinase inhibitors” (Eur J Med Chem, 2018).

For data set [1], the target named is T1, Hepatocyte growth factor receptor (Homo sapiens, UniProt P08581). Put plainly: Inhibition of c-Met (unknown origin) using poly(Glu-Tyr) at 4:1 ratio as substrate in presence of ATP incubated for 60 mins by ELISA.
Data set [2] deals with MKN-45. Put plainly: Antiproliferative activity against human MKN-45 cells assessed as reduction in cell proliferation incubated for 48 hrs. Format: functional, cell-based. The conditions noted are these: MKN-45, 48 h.
For data set [3], the target named is T1, Hepatocyte growth factor receptor. Put plainly: Inhibition of c-Met (unknown origin) kinase activity using biotinylated poly-tyrosine as substrate in presence of ATP incubated for 1 hr by AlphaQuest analysis.
For data set [4], the system named is MKN-45. Put plainly: cells. The conditions noted are these: Homo sapiens, MKN-45, 72 h.
Data set [5] has as its system EBC-1. In words: cells. Conditions: Homo sapiens, EBC-1, 72 h.
The subject of data set [6] is MKN-45. Put plainly: cells. Conditions: Homo sapiens, MKN-45, 72 h. This is another data set of the same source.
The target in data set [7] is T1, Hepatocyte growth factor receptor. Put plainly: Inhibition of c-Met (unknown origin) kinase activity using poly(Glu-Tyr) at 4:1 ratio as substrate in presence of ATP incubated for 30 mins by HTRF assay. Background: TR-FRET usually uses a lanthanide donor and a delayed reading to cut background.
Data set [8] has as its system HT-29. In words: Antiproliferative activity against human HT-29 cells assessed as reduction in cell proliferation incubated for 48 hrs by sulforhodamine B assay. Conditions: HT-29, 48 h. Format: functional, cell-based.
For data set [9], the target named is T1, Hepatocyte growth factor receptor. Put plainly: Inhibition of c-Met (unknown origin) kinase activity using peptide as substrate in presence of 33P-ATP incubated for 20 to 30 mins by scintillation counter analysis.
The subject of data set [10] is MKN-45. Put plainly: Antiproliferative activity against human MKN-45 cells assessed as reduction in cell proliferation incubated for 48 hrs by sulforhodamine B assay. Format: functional, cell-based. Conditions: MKN-45, 48 h. For orientation: The SRB assay estimates cell density from bound dye.
Data set [11] relates to A549. In words: Antiproliferative activity against human A549 cells assessed as reduction in cell proliferation incubated for 48 hrs by sulforhodamine B assay. Conditions: A549, 48 h. Format: functional, cell-based.
The subject of data set [12] is HT-29. In words: Antiproliferative activity against human HT-29 cells assessed as reduction in cell proliferation incubated for 72 hrs by MTT assay. The class given is functional, cell-based. Conditions: HT-29, 72 h. For orientation: Tetrazolium dyes change colour on reduction, which living cells bring about.
Data set [13] relates to BaF3. Put plainly: cells. Conditions: Mus musculus, BaF3, 72 h.
In the next data set the test system is HUVEC. In words: cells. Conditions: Homo sapiens, 72 h.
The next data set relates to Bel-7402. In words: Antiproliferative activity against human Bel-7402 cells assessed as reduction in cell viability incubated for 24 hrs by MTT assay. Format: functional, cell-based. The conditions noted are these: Bel-7402, 24 h.
The next data set deals with HeLa. Put plainly: Antiproliferative activity against human HeLa cells assessed as reduction in cell viability incubated for 24 hrs by MTT assay. Format: functional, cell-based.
The target in data set [14] is T1, Hepatocyte growth factor receptor. Put plainly: Inhibition of His6-tagged recombinant human c-Met using 5FAM-KKK-SPGEYVNIGFG-NH2 as substrate in presence of ATP incubated for 60 mins by AiphaQuest assay.
Data set [15] relates to A549. Put plainly: Antiproliferative activity against human A549 cells assessed as reduction in cell viability incubated for 24 hrs by MTT assay. The conditions noted are these: A549, 24 h. The class given is functional, cell-based.
The test system of data set [16] is HepG2. Put plainly: Antiproliferative activity against human HepG2 cells assessed as reduction in cell viability incubated for 24 hrs by MTT assay. Format: functional, cell-based. Conditions: HepG2, 24 h.
The test system of data set [17] is EBC-1. In words: cells. The conditions noted are these: Homo sapiens, EBC-1, 72 h. The source holds these as a separate data set.
The test system of data set [18] is BaF3. Put plainly: Antiproliferative activity against mouse BaF3 cells expressing […] protein assessed as reduction in cell proliferation incubated for 72 hrs by Cell Titer-Glo luminescence assay. Format: functional, cell-based. The conditions noted are these: BaF3, 72 h.
Data set [19] has as its target T1, Hepatocyte growth factor receptor. In words: Inhibition of c-Met (unknown origin) kinase activity using peptide as substrate in presence of ATP incubated for 1 hrs by ELISA.
In the next data set the test system is Hs746T. Put plainly: Antiproliferative activity against human Hs746T cells assessed as reduction in cell viability incubated for 72 hrs by WST-8 assay. Format: functional, cell-based.
The target in data set [20] is T1, Hepatocyte growth factor receptor. In words: Inhibition of recombinant c-Met (unknown origin) using peptide as substrate in presence of ATP by TR-FRET assay.
The subject of data set [21] is HepG2. Put plainly: Antiproliferative activity against human HepG2 cells assessed as reduction in cell proliferation incubated for 48 hrs by MTT assay. Format: functional, cell-based. The conditions noted are these: HepG2, 48 h.
Data set [22] relates to NIH3T3. Put plainly: In vivo antitumor activity against mouse NIH3T3 cells expressing […] protein xenografted in nude mouse assessed as tumor growth inhibition at 100 mg/kg,po for 11 days. The class given is functional. The conditions noted are these: NIH3T3, 264 h, time 11 day, read-out: TGI.
The nature of data set [23]: Oral bioavailability in mouse at 10 mg/kg. The class given is ADME, organism-based. The conditions noted are these: in vivo.
Data set [24] in a line: AUC in mouse at 10 mg/kg, po. Conditions: in vivo. The arrangement: dose 10 mg/kg, route po. Format: ADME, organism-based.
Another data set concerns SNU-5. In words: cells. Conditions: Homo sapiens, SNU-5, 72 h.
The nature of data set [25]: Cmax in mouse at 10 mg/kg, po. Conditions: in vivo. The arrangement: dose 10 mg/kg, route po. Format: ADME, organism-based.
The test system of data set [26] is BaF3. In words: cells. The conditions noted are these: Mus musculus, BaF3, 72 h. This is another data set of the same source.
A short description of data set [27]: Half life in mouse at 10 mg/kg, po. Format: ADME, organism-based. Conditions: in vivo.
For data set [28], the system named is NIH3T3. Put plainly: cells. Conditions: Mus musculus, NIH3T3, 72 h.
In data set [29] the test system is EBC-1. Put plainly: Antiproliferative activity against human EBC-1 cells assessed as reduction in cell proliferation incubated for 72 hrs by CellTiter-Glo luminescent assay. The class given is functional, cell-based. Conditions: EBC-1, 72 h.
Data set [30] relates to MKN-45. Put plainly: Antiproliferative activity against human MKN-45 cells assessed as reduction in cell proliferation incubated for 72 hrs by CellTiter-Glo luminescent assay. Format: functional, cell-based. Conditions: MKN-45, 72 h.
In data set [31] the target is T1, Hepatocyte growth factor receptor. In words: Inhibition of c-Met (unknown origin).

T1 sequence (P08581 whole entry): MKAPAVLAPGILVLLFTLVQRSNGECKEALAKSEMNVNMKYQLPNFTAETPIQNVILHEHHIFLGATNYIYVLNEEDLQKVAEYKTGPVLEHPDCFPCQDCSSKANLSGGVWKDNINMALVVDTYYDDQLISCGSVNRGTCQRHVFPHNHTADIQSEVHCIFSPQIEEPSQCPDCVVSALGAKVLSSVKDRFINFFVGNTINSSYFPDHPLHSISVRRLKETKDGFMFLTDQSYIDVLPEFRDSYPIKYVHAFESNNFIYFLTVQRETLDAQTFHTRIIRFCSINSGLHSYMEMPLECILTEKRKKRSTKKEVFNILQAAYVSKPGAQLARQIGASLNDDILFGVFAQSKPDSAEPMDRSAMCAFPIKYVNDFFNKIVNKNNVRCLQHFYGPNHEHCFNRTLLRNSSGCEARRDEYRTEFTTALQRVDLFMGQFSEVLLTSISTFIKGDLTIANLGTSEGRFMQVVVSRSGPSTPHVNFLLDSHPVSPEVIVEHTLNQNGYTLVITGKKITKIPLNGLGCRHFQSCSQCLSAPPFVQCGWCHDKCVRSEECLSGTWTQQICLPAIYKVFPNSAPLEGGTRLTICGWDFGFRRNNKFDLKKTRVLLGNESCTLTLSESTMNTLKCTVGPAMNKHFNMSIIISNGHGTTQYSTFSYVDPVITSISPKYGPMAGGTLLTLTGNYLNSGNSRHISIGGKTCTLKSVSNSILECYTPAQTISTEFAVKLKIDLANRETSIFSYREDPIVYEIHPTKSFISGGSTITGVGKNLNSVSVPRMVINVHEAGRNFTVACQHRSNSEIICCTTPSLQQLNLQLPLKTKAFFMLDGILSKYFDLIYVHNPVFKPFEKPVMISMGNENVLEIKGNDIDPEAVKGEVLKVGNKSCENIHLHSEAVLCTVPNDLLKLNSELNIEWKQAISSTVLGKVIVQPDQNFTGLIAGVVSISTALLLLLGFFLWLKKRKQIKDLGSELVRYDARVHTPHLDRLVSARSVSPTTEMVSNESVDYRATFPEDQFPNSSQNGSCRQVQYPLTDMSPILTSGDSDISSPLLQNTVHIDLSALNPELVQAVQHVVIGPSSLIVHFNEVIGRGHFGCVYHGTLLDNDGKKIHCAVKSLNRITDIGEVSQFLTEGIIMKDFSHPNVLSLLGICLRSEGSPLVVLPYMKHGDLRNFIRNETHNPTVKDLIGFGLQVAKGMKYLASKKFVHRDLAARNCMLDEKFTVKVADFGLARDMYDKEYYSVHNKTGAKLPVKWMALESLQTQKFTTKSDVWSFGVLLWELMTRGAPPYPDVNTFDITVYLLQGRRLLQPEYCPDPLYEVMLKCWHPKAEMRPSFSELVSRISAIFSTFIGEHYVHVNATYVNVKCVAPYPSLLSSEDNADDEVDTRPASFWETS

`COC(=O)c1ccc(N2NC(=O)/C(=C/c3ccc(-c4ccc(Cl)c(C(=O)O)c4)o3)C2=O)cc1`: the IC50 in data set [1] was found to be 9500 nM.
`OC1CCC(n2cc(-c3ncc4ncn(Cc5ccc6ncccc6c5)c4n3)cn2)CC1` (stereo not given): the IC50 with MKN-45 [2] turned out to be 125000 nM; in data set [3], 10400 nM.
In the case of `CNC(=O)c1ccc(-c2ccc3ncc(S(=O)(=O)n4ccc5cnccc54)n3c2)cc1F`, the IC50 worked out at 9.9 nM in the data set with MKN-45 [4] and 19.8 nM with EBC-1 [5].
On to `COc1cc2c(Oc3ccc(NC(=O)Nc4nc5c(C)ccc(C)c5s4)cc3F)ccnc2cc1OCCCN1CCN(C)CC1`, for which the results for the IC50 (in the data set with MKN-45 [6]; in data set [7]) were 60 nM and 17.6 nM, respectively.
As to `O=C(CSc1nc(=O)c(/C=C/c2ccco2)n[nH]1)N/N=C/c1cccs1`, the IC50 was 30 nM in the data set with HT-29 [8], 4310 nM in [9], 60 nM in the data set with MKN-45 [10] and 20 nM in the data set with A549 [11].
Regarding `COc1cc2c(Oc3ccc(N/C=C(\C#N)C(=O)Nc4ccc(C)cc4)cc3F)ccnc2cc1OCCCN1CCN(C)CC1`, the IC50 with HT-29 [12] is 40 nM; in the data set with MKN-45 [6] it was 390 nM.
In the data set on MKN-45 [6], `COc1cc2c(Oc3ccc(NC(=O)/C=C/S(=O)(=O)c4ccccc4)cc3F)ccnc2cc1OCCCN1CCN(C)CC1` returned an IC50 of 450 nM.
With `Cc1ccc(N2NC(=O)/C(=C/c3ccc(-c4cc([N+](=O)[O-])ccc4O)o3)C2=O)cc1C`, the IC50 in data set [1] was 460 nM.
As to `Cc1c(C(=O)Nc2ccc(Oc3ccnc(-c4nncn4CCCN4CCN(C)CC4)c3)c(F)c2)c(=O)n(-c2ccccc2)n1C`, the IC50 in the data set with BaF3 [13] is 130 nM; in the data set with HUVEC, 300 nM.
On to `CC(C)=C1C/C=C(\C)CC/C=C(\C)CC1OS(=O)(=O)c1ccc(C)cc1` (stereo not given), for which the IC50 worked out at 71800 nM in the data set with Bel-7402, 88600 nM with HeLa, 84500 nM with A549 [15] and 56200 nM with HepG2 [16]. Moreover, the inhibition in [14] turned out to be 56%.
For `COc1ccc2c(OCc3nnc4ncc(-c5ccccc5)nn34)ccnc2c1`, the IC50 was found to be 12 nM in the data set with EBC-1 [17] and 21 nM in the data set with MKN-45 [6].
On to `Clc1ccc(-c2cn3cccc(COc4nnc5ccc(Cl)nn45)c3n2)c(Cl)c1`, for which the IC50 is 253 nM with BaF3 [18] and 53.4 nM in data set [19].
Consider `Cn1cc(-c2ccc(=O)n(C[C@@H]3CN(c4ncc(OCC5CCNCC5)cn4)CCO3)n2)cn1`, for which the IC50 in the data set on Hs746T was determined as 3170 nM; in data set [20], 19 nM.
In the case of `COc1cc2c(Oc3ccc(NC(=O)c4cn(-c5ccccc5C(F)(F)F)c5ccccc5c4=O)cc3F)ccnc2cc1OCCCN1CCCCC1`, the IC50 with MKN-45 [6] worked out at 10 nM; in data set [7], 1.35 nM.
With `CC(C)(C)OC(=O)N1CCc2c(sc3ncnc(Oc4ccc(NC(=O)C5(C(=O)Nc6ccc(F)cc6)CC5)cc4F)c23)C1`, the IC50 in the data set on HepG2 [21] turned out to be 1700 nM.
Turning to `O=C(Nc1ccc(Oc2ccnc3[nH]c(-c4ccsc4)nc23)cc1)c1cccn(-c2ccc(F)cc2)c1=O`, the inhibition in vivo at 100 mg/kg in the data set on NIH3T3 [22] was 30.9%. Also, the bioavailability in data set [23] is 28.3%. This compound had an AUC in data set [24] of 6280 ng·h/mL. Moreover, the IC50 with SNU-5 was 5300 nM; with MKN-45 [6] it was 4300 nM; in the data set with BaF3 [26] it was 590 nM; in the data set with NIH3T3 [28] it was 1600 nM. The Cmax in [25] stood at 2170 ng/mL. Further, the half-life in data set [27] was 2.07 h.
With `CC(C)=C1C/C=C(\C)CC/C=C(\C)CC1OC(=O)c1ccc(C)cc1` (stereo not given), the IC50 in the data set on Bel-7402 amounted to 75800 nM; in the data set with HeLa it was 83600 nM; in the data set with A549 [15] it was 84800 nM; in the data set on HepG2 [16], 68200 nM.
For the compound `Fc1ccc(Cl)c(Sc2n[nH]c3ncc(-c4cnn(C5CCNCC5)c4)cc23)c1Cl`, the figures for the IC50 with EBC-1 [29] and in the data set with MKN-45 [30] were 479 nM and 329 nM, respectively.
The compound `COc1cc2nccc(Oc3ccc(NC(=O)C4(Cl)CCCN(c5ccc(F)cc5)C4=O)cc3F)c2cc1OC` (stereo not given) returned an IC50 in the data set on MKN-45 [4] of 570 nM.
Consider `COc1cc2c(Oc3ccc(N/C=C4\C(=O)N(c5ccccc5C(F)(F)F)N=C4C)cc3F)ccnc2cc1OCCCN1CCOCC1`, for which the values for the IC50 (in the data set with MKN-45 [6]; in data set [7]) were 30 nM and 2.2 nM, respectively.
For the compound `c1cnc2ccc(Cn3nnc4ncc(-c5ccc6[nH]c7c(c6c5)CNCC7)nc43)cc2c1`, the IC50 in data set [31] was found to be 14.5 nM.

The term IC50 denotes the concentration that inhibits the measured activity by half. In general, inhibition refers to the share of the control response that was lost under treatment. What is called bioavailability is dose-corrected exposure relative to a reference, in per cent. Usually AUC stands for the area under the concentration-time curve, a measure of exposure. The term Cmax denotes the peak of the concentration-time curve. By half-life is commonly meant the time in which the quantity being followed falls by half. The low end stands for rapid decline, the high end for slow decline.
